Laboratory results taken from article PMC4452912 (Viruses, 2015).
Like-named read-outs stand apart in the source and are kept apart here.

Legend:
[1] = biological target: T1, ER α-glucosidase I (Bos taurus, UniProt A0A3Q1M9D9); assay type: cell-based
T1 sequence (A0A3Q1M9D9 1-839): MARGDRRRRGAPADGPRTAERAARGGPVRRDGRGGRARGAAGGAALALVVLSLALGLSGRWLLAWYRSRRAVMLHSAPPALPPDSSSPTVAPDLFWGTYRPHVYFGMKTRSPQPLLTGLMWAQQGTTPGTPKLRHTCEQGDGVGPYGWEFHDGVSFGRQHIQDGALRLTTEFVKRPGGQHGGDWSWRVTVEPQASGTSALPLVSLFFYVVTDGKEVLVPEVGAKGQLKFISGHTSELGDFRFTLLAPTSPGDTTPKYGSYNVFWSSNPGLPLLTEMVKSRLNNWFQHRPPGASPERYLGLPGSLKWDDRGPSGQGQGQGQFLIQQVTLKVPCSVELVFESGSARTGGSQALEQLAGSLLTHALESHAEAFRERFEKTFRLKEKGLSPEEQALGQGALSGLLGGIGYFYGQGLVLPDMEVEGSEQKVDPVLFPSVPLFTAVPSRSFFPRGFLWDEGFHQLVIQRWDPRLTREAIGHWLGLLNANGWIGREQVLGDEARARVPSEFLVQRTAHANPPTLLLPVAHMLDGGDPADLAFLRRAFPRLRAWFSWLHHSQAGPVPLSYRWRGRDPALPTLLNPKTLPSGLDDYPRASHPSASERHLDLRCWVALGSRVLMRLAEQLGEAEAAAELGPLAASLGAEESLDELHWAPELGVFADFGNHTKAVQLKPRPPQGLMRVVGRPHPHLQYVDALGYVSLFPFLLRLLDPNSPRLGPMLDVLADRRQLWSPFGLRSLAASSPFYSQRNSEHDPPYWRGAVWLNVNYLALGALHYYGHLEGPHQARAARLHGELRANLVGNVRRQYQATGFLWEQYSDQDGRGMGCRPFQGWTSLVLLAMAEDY

[2] = test system: DENV2 strain S221; test: Dengue viral load by qRT-PCR in serum and tissues of AG129 mice; assay type: in vivo; conditions: 100 mg/kg TID
[3] = 10 day repeat dose oral safety study in mice; assay type: in vivo, Swiss Albino mice; conditions: male mice
[4] = in vitro; assay type: cell-based, canine; conditions: dog
[5] = biological target: CYP3A4 (Homo sapiens, UniProt P08684); test: CYP inhibition in human liver microsomes, CYP3A4; assay type: in vitro ADME
CYP3A4, sequence (P08684 whole entry): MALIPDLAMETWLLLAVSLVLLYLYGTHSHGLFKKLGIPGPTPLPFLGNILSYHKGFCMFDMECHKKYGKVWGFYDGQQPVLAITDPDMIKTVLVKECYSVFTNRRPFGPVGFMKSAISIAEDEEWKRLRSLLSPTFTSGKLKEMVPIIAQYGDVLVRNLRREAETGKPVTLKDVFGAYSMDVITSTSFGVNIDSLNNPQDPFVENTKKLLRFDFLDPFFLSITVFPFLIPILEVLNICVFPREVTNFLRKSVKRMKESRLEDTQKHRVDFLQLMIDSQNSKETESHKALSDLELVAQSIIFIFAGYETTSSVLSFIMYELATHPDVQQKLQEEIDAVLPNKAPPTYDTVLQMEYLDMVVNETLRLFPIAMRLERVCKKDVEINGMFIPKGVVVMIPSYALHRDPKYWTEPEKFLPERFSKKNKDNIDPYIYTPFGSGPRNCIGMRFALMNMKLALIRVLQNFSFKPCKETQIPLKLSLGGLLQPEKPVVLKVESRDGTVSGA

[6] = in vitro; assay type: in vitro ADME; conditions: dog, plasma
[7] = biological target: CYP2D6 (Homo sapiens, UniProt P10635); test: CYP inhibition in human liver microsomes, CYP2D6; assay type: in vitro ADME
CYP2D6, sequence (P10635 whole entry): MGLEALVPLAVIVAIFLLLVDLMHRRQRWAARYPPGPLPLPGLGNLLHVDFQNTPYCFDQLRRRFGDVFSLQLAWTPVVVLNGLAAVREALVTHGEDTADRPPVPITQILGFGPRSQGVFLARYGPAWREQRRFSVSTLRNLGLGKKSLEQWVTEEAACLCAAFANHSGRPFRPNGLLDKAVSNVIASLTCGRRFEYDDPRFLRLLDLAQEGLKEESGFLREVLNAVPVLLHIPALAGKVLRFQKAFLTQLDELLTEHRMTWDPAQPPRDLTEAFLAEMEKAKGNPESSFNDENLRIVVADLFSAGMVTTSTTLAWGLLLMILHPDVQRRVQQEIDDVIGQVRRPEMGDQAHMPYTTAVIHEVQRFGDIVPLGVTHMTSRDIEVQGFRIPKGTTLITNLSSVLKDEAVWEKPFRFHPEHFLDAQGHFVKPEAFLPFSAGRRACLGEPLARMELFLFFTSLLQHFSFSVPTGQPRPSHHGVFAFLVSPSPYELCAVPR

[8] = biological target: T2, CYP1A2 (Homo sapiens, UniProt P05177); test: CYP inhibition in human liver microsomes, CYP1A2; assay type: in vitro ADME
T2 sequence (P05177 1-516): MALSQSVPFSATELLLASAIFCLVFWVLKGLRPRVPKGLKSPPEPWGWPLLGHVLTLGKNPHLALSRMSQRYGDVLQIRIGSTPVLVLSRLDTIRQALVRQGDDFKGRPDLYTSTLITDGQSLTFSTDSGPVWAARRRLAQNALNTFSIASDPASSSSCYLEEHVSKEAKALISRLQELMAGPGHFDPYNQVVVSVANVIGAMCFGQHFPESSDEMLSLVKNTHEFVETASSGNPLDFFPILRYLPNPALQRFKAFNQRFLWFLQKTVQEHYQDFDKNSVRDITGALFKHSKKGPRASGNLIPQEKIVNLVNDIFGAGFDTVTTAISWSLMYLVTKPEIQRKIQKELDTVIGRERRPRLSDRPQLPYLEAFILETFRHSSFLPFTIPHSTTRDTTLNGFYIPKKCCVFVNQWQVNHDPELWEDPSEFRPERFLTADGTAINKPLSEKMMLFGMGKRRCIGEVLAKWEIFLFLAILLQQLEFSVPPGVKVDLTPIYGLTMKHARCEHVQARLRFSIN

[9] = in vitro; assay type: in vitro ADME; conditions: rat, microsomes
[10] = test system: DENV2 strain S221; assay type: in vivo, AG129 mice
[11] = physchem; conditions: aqueous buffer
[12] = in vitro; assay type: in vitro ADME; conditions: dog, microsomes
[13] = biological target: ER α-glucosidase II (Rattus norvegicus, UniProt A0A8I6GFL3); test: Purified enzyme inhibition, ER α-glucosidase II; assay type: biochemical; conditions: rat liver enzyme
ER α-glucosidase II, sequence (A0A8I6GFL3 33-944): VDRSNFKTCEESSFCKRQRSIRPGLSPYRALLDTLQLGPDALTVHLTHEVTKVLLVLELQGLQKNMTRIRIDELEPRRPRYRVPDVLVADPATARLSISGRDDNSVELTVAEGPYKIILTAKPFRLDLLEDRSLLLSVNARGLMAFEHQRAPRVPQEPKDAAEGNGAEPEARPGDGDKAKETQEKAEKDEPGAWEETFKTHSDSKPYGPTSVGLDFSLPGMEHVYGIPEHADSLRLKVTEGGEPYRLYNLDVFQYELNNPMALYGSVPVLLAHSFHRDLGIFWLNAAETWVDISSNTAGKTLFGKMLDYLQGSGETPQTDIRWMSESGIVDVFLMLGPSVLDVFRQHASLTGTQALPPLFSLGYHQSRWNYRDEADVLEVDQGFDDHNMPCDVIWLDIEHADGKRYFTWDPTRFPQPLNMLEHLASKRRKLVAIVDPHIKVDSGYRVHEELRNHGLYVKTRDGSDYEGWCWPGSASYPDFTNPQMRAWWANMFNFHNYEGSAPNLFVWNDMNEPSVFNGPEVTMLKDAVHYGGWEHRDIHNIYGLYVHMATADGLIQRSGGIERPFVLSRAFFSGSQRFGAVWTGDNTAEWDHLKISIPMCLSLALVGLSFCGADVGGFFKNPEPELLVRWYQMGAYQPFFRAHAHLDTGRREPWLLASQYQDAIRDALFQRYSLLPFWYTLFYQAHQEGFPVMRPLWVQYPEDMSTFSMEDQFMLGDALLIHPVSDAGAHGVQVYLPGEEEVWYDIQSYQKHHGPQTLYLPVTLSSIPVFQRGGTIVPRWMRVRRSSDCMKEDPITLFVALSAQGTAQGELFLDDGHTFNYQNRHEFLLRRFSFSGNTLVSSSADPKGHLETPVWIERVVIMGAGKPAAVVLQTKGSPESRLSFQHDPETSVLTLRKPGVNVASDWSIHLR

[14] = in vitro; assay type: in vitro ADME; conditions: human, microsomes
[15] = test system: ER α-glucosidases I and II; test: Cellular free oligosaccharide (FOS) assay in HL60 cells; assay type: cell-based, human; conditions: 24 h, mono- and tri-glucosylated FOS
[16] = Guinea pig pharmacokinetics; assay type: in vivo, Hartley guinea pigs; conditions: Hartley; for half-life: plasma, guinea pigs
[17] = 72 h post infection, vs vehicle
[18] = 100 mg/kg PO TID 10 days, vs control

In the case of `OC[C@@H]1[C@@H](O)[C@H](O)[C@@H](O)CN1CCCCCCCCC1CCCO1` (some centres unmarked) [UV-12], the “cellular half-life of UV-12 inhibition (blockage of α-glucosidase I)” value [1] is reported as 307 ± 109 min, the “reversibility of inhibition in cells” value ([1]; MDBK cells) is reported as “reversible inhibitor” and the “viral loads in serum, liver or spleens” value ([2]; 72 and 96 h) is reported as “not reduced”. For the same molecule, the “decrease in viral load, kidneys” value [2, 17] was 12.9 fold, the “decrease in viral load, small intestine” value [2, 17] was 6.1 fold and the “increase in virus titers, spleens” value ([2]; 72 h time point) was 5 fold. The “decrease in viral load, kidneys” value ([2]; 96 h post infection, vs vehicle) was 5.23 fold, the “average weight lost at end of treatment” value ([3]; 100 mg/kg PO TID 10 days) was 1.72 g and the “thymus finding at necropsy/histopathology” value ([3]; 100 mg/kg PO TID 10 days, associated with decreased thymus weight) was “lymphoid depletion”. For the same molecule, the “average weight lost at end of treatment” value ([3]; 100 mg/kg PO TID 10 days, not statistically significant) was 4.53%, the “decreased ALP” value [3, 18] was 45% and the decreased glucose [3, 18] was 29%. The “increased AST” value [3, 18] was 76%, the “mortality, general health, body weights, food consumption” value ([3]; 100 mg/kg PO three times daily, 10 days) was “neither mortality nor any noteworthy effects” and the CC50 at 5 days [4] was > 500000 nM. For the same molecule, the IC50 [5] was > 100000 nM, the fraction unbound at 6 h, 10 μM [6] was 0.28 and the IC50 [7] was > 100000 nM. The IC50 [8] was > 100000 nM, the “Liver microsome metabolic stability CLintr” value [9] was <0.6 mL/min/g liver and the half-life at 0.5 µM [9] was > 30 min. For the same molecule, the “parent drug remained after 30 min” value ([9]; 0.5 h, 0.5 µM) was 100%, the “animals protected (survival)” value ([10]; 20 mg/kg PO TID 7 days from 1 h before challenge) was 100% and the “animals protected (survival)” value ([10]; 100 mg/kg PO TID 7 days from 1 h before challenge) was 100%. The solubility [11] was > 100 mg/mL, the “Liver microsome metabolic stability CLintr” value [12] was <0.6 mL/min/g liver and the half-life at 0.5 µM [12] was > 30 min. The “parent drug remained after 30 min” value ([12]; 0.5 h, 0.5 µM) was 100%, the IC50 ([13]; Glc1 substrate, mean and SD, triplicate, read-out: IC50 α-glc II, Glc1) was 830 ± 370 nM and the IC50 ([13]; Glc2 substrate, mean and SD, triplicate, read-out: IC50 α-glc II, Glc2) was 1100 ± 480 nM. For the same molecule, the IC50 ([13]; range over the two activities (Glc2, Glc1), read-out: IC50 for α-glucosidase II) was 830 to 1100 nM, the “Liver microsome metabolic stability CLintr” value [14] was <0.6 mL/min/g liver and the half-life at 0.5 µM [14] was > 30 min. For the same molecule, the “parent drug remained after 30 min” value ([14]; 0.5 h, 0.5 µM) was 100%, the “inhibition of ER α-glucosidase enzymes in cell-based FOS assay” value [15] was “inhibited” and the Cmax ([16]; in vivo) was 8850 to 11600 ng/mL. It also gave a Tmax ([16]; in vivo) of 15 to 30 min, an AUC(0-inf) ([16]; female, in vivo, im, 100 mg/kg) of 19200 ng·h/mL and an AUC(0-t) ([16]; female, in vivo, im, 100 mg/kg) of 19100 ng·h/mL. For the same molecule, the Cmax ([16]; female, in vivo, im, 100 mg/kg) was 11600 ng/mL, the Tmax ([16]; female, in vivo, im, 100 mg/kg) was 15 min and the bioavailability ([16]; female, in vivo, im, 100 mg/kg) was 109%. The “Vss relative to normal body water” value ([16]; female, in vivo, iv) was > 8 fold, the AUC(0-inf) ([16]; female, in vivo, iv, 25 mg/kg) was 4400 ± 599 ng·h/mL and the AUC(0-t) ([16]; female, in vivo, iv, 25 mg/kg) was 4370 ± 583 ng·h/mL. For the same molecule, the Cmax ([16]; female, in vivo, iv, 25 mg/kg) was 8860 ng/mL, the Vd ([16]; female, in vivo, iv, 25 mg/kg) was 5.14 ± 0.64 L/kg and the clearance ([16]; female, in vivo, iv, 25 mg/kg) was 95.9 ± 12.7 mL/min/kg. It also gave an AUC(0-inf) ([16]; female, in vivo, sc, 100 mg/kg) of 23100 ng·h/mL, an AUC(0-t) ([16]; female, in vivo, sc, 100 mg/kg) of 23000 ng·h/mL and a Cmax ([16]; female, in vivo, sc, 100 mg/kg) of 11000 ng/mL. For the same molecule, the Tmax ([16]; female, in vivo, sc, 100 mg/kg) was 30 min, the bioavailability ([16]; female, in vivo, sc, 100 mg/kg) was 131% and the half-life ([16]; female, IM 100 mg/kg) was 119 ± 54.6 min. For the same molecule, the half-life ([16]; female, IV 25 mg/kg) was 84 ± 5.4 min and the half-life ([16]; female, SC 100 mg/kg) was 133 ± 22.2 min.
